This note sets out measurements from US20050245399A1, “Pyrazole derivatives as herbicidal compositions containing them” (ISHIHARA SANGYO KAISHA, LTD., priority 2004, published 2005).

For the first experiment, the system named is rice (Oryza sativa L.): ORYSA. The experiment can be described thus: Test Example 1 pre-emergence herbicidal activity, ORYSA. Type of experiment: in vivo. The conditions noted are these: Rate 63 g a.i./ha, visually observed 20th to 23rd day after application. The procedure, abridged:
(§1)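 Visual scoring 20–23 days after treatment gives percent growth control, where 0 equals untreated and 100 means complete kill. Treatment: pre-emergence spray of formulated compound in 500 L/ha water, one day after sowing in upland soil.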
`COc1c(Cl)cc(F)c(-c2nn(C)c(OC(F)F)c2Cl)c1NC(=O)OCCCl` [Compound 1-68]: the “Pre-emergence Herbicidal Activity ORYSA (growth controlling degree)” value was 40%.

Another experiment relates to soybean (Glycine max Merr.): GLXMA. The experiment can be described thus: Test Example 1 pre-emergence herbicidal activity, GLXMA. The experiment is classed as in vivo. Particulars: Rate 63 g a.i./ha, visually observed 20th to 23rd day after application. Summed up: as §1
Take `COc1c(Cl)cc(F)c(-c2nn(C)c(OC(F)F)c2Cl)c1NC(=O)OCCCl` [Compound 1-68]: the “Pre-emergence Herbicidal Activity GLXMA (growth controlling degree)” value is on record as 0%.

The next experiment relates to velvetleaf (Abutilon theophrasti), ABUTH. The experiment can be described thus: Test Example 2 post-emergence (foliage treatment) herbicidal activity, ABUTH. The experiment is classed as in vivo. The conditions noted are these: 63 g a.i./ha. Summed up:
(§2)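 Each species was evaluated for growth suppression by eye, 0% matching untreated and 100% meaning death, some 20 to 23 days after a single post-emergence foliar treatment applied in 500 L/ha of water carrying 0.1% (v/v) agricultural spreader.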
With `COc1c(Cl)cc(F)c(-c2nn(C)c(OC(F)F)c2Cl)c1NC(=O)OCCCl` [Compound 1-68], the “growth controlling degree, ABUTH” value was 100%.

For the next experiment, the system named is wheat (Triticum aestivum L.), TRZAX. The experiment can be described thus: Test Example 2 post-emergence (foliage treatment) herbicidal activity, TRZAX. Type of experiment: in vivo. The conditions noted are these: 63 g a.i./ha. The procedure, abridged: as §2
As for `COc1c(Cl)cc(F)c(-c2nn(C)c(OC(F)F)c2Cl)c1NC(=O)OCCCl` [Compound 1-68], the “growth controlling degree, TRZAX” value is 20%.

The next experiment relates to barnyardgrass (Echinochloa crus-galli L.): ECHCG. The experiment can be described thus: Test Example 1 pre-emergence herbicidal activity, ECHCG. Type of experiment: in vivo. The conditions noted are these: Rate 63 g a.i./ha, visually observed 20th to 23rd day after application. The procedure, abridged:
as §1
For `COc1c(Cl)cc(F)c(-c2nn(C)c(OC(F)F)c2Cl)c1NC(=O)OCCCl` [Compound 1-68], the “Pre-emergence Herbicidal Activity ECHCG (growth controlling degree)” value is given as 95%.

The test system of another experiment is velvetleaf (Abutilon theophrasti): ABUTH. The experiment can be described thus: Test Example 1 pre-emergence herbicidal activity, ABUTH. The conditions noted are these: Rate 63 g a.i./ha, visually observed 20th to 23rd day after application. Type of experiment: in vivo. The procedure, abridged:
as §1
On to `COc1c(Cl)cc(F)c(-c2nn(C)c(OC(F)F)c2Cl)c1NC(=O)OCCCl` [Compound 1-68], for which the “Pre-emergence Herbicidal Activity ABUTH (growth controlling degree)” value amounted to 100%.

Another experiment concerns green foxtail (Setaria viridis L.): SETVI. The experiment can be described thus: Test Example 1 pre-emergence herbicidal activity, SETVI. Type of experiment: in vivo. Particulars: Rate 63 g a.i./ha, visually observed 20th to 23rd day after application. Summed up: as §1
For `COc1c(Cl)cc(F)c(-c2nn(C)c(OC(F)F)c2Cl)c1NC(=O)OCCCl` [Compound 1-68], the “Pre-emergence Herbicidal Activity SETVI (growth controlling degree)” value is 100%.

In the next experiment the test system is wheat (Triticum aestivum L.): TRZAX. The experiment can be described thus: Test Example 1 pre-emergence herbicidal activity, TRZAX. The experiment is classed as in vivo. Particulars: Rate 63 g a.i./ha, visually observed 20th to 23rd day after application. Summed up: as §1
For the compound `COc1c(Cl)cc(F)c(-c2nn(C)c(OC(F)F)c2Cl)c1NC(=O)OCCCl` [Compound 1-68], the “Pre-emergence Herbicidal Activity TRZAX (growth controlling degree)” value was determined as 40%.

A further experiment relates to barnyardgrass (Echinochloa crus-galli L.), ECHCG. The experiment can be described thus: Test Example 2 post-emergence (foliage treatment) herbicidal activity, ECHCG. Type of experiment: in vivo. The conditions noted are these: 63 g a.i./ha. Summed up:
(§3)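 Foliar spray of formulated compound (500 L/ha dilution water, 0.1% v/v spreader) onto young potted plants at defined leaf stages. Scored 0-100% by visual inspection 20-23 d post-spray.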
Turning to `COc1c(Cl)cc(F)c(-c2nn(C)c(OC(F)F)c2Cl)c1NC(=O)OCCCl` [Compound 1-68], the “growth controlling degree, ECHCO” value is recorded as 70%.

The next experiment concerns japanese ribbon wapato (Sagittaria pygmaea: SA GPY). The experiment can be described thus: Test Example 3 water application herbicidal activity (paddy), SAGPY. Type of experiment: in vivo. Particulars: 63 g a.i./ha, water application under submerged condition, tubers planted, visually observed 14th day after application; 0 = untreated control, 100 = complete kill. The text has this:
(§4) Paddy field soil was put into a 1/1,000,000 ha pot and seeds of barnyardgrass (Echinochiloa oryzicola: ECHOR) and japanese bulrush (Scirpus juncoides: SCPJO) were sown and slightly covered with soil. Then the pot was left to stand still in a greenhouse in a state where the depth of flooding water was from 0.5 to 1 cm, and one day later, tubers of japanese ribbon wapato (Sagittaria pygmaea: SA GPY) were planted. Thereafter, the depth of flooding water was maintained at a level of from 3 to 4 cm, and when barnyardgrass and japanese bulrush reached a 0.5 leaf stage, an aqueous diluted solution of a wettable powder or emulsifiable concentrate having the compound of the present invention formulated in accordance with a usual formulation method, was uniformly applied under submerged condition by a pipette so that the dose of the active ingredient would be at a predetermined level. On the other hand, paddy filed soil was put into a 1/1,000,000 ha pot and puddled and leveled, and the depth of flooding water was from 3 to 4 cm. One day later, rice (Oryza sativa L.: ORYSA) of 2 leaf stage was transplanted in a depth of 3 cm. On the 4th day after the transplantation, the compound of the present invention was applied in the same manner as described above. On the 14th day after the application of the herbicide, the growth of barnyardgrass, japanese burlush and japanese ribbon wapato was visually observed and on the 21st day after the application of the herbicide, the growth of rice was visually observed, and the herbicidal effects were evaluated by growth controlling degrees (%) ranging from 0 (equivalent to the untreated control) to 100 (complete kill), whereby the results shown in Table 6, were obtained. Compound Nos. in Table 6 correspond to Compound Nos. in Table 1 and 2 given hereinbefore.
`COc1c(Cl)cc(F)c(-c2nn(C)c(OC(F)F)c2Cl)c1NC(=O)OCCCl` [Compound 1-68]: the “growth controlling degrees (%) SAGPY” value is 80%.

A further experiment concerns corn (Zea mays L.), ZEAMX. The experiment can be described thus: Test Example 2 post-emergence (foliage treatment) herbicidal activity, ZEAMX. The experiment is classed as in vivo. Particulars: 63 g a.i./ha. The procedure, abridged:
as §2
Consider `COc1c(Cl)cc(F)c(-c2nn(C)c(OC(F)F)c2Cl)c1NC(=O)OCCCl` [Compound 1-68], for which the “growth controlling degree, ZEAMX” value was 50%.

The test system of the next experiment is rice (Oryza sativa L.), ORYSA. The experiment can be described thus: Test Example 2 post-emergence (foliage treatment) herbicidal activity, ORYSA. Particulars: 63 g a.i./ha. The experiment is classed as in vivo. The procedure, abridged:
as §3
As to `COc1c(Cl)cc(F)c(-c2nn(C)c(OC(F)F)c2Cl)c1NC(=O)OCCCl` [Compound 1-68], the “growth controlling degree, ORYSA” value came out at 60%.

The subject of a further experiment is green foxtail (Setaria viridis L.), SETVI. The experiment can be described thus: Test Example 2 post-emergence (foliage treatment) herbicidal activity, SETVI. Particulars: 63 g a.i./ha. Type of experiment: in vivo. The procedure, abridged:
as §2
In the case of `COc1c(Cl)cc(F)c(-c2nn(C)c(OC(F)F)c2Cl)c1NC(=O)OCCCl` [Compound 1-68], the “growth controlling degree, SETVI” value was 100%.

Another experiment concerns barnyardgrass (Echinochiloa oryzicola: ECHOR). The experiment can be described thus: Test Example 3 water application herbicidal activity (paddy), ECHOR. The experiment is classed as in vivo. The conditions noted are these: 63 g a.i./ha, water application under submerged condition at 0.5 leaf stage, visually observed 14th day after application; 0 = untreated control, 100 = complete kill.
Description: as §4
`COc1c(Cl)cc(F)c(-c2nn(C)c(OC(F)F)c2Cl)c1NC(=O)OCCCl` [Compound 1-68]: the “growth controlling degrees (%) ECHOR” value is on record as 100%.

The next experiment has as its system japanese bulrush (Scirpus juncoides: SCPJO). The experiment can be described thus: Test Example 3 water application herbicidal activity (paddy), SCPJO. The experiment is classed as in vivo. Particulars: 63 g a.i./ha, water application under submerged condition at 0.5 leaf stage, visually observed 14th day after application; 0 = untreated control, 100 = complete kill.
Description: as §4
Take `COc1c(Cl)cc(F)c(-c2nn(C)c(OC(F)F)c2Cl)c1NC(=O)OCCCl` [Compound 1-68]: the “growth controlling degrees (%) SCPJO” value worked out at 95%.

For another experiment, the system named is crabgrass (Digitaria sanguinalis L.): DIGSA. The experiment can be described thus: Test Example 1 pre-emergence herbicidal activity, DIGSA. The experiment is classed as in vivo. The conditions noted are these: Rate 63 g a.i./ha, visually observed 20th to 23rd day after application. Summed up: as §1
For `COc1c(Cl)cc(F)c(-c2nn(C)c(OC(F)F)c2Cl)c1NC(=O)OCCCl` [Compound 1-68], the “Pre-emergence Herbicidal Activity DIGSP (growth controlling degree)” value is reported as 100%.

Another experiment concerns soybean (Glycine max Merr.), GLXMA. The experiment can be described thus: Test Example 2 post-emergence (foliage treatment) herbicidal activity, GLXMA. Particulars: 63 g a.i./ha. Type of experiment: in vivo. The procedure, abridged: as §2
On to `COc1c(Cl)cc(F)c(-c2nn(C)c(OC(F)F)c2Cl)c1NC(=O)OCCCl` [Compound 1-68], for which the “growth controlling degree, GLXMA” value came to 60%.

For a further experiment, the system named is redroot pigweed (Amaranthus retroflexus L.): AMARE. The experiment can be described thus: Test Example 1 pre-emergence herbicidal activity, AMARE. Type of experiment: in vivo. Particulars: Rate 63 g a.i./ha, visually observed 20th to 23rd day after application. The procedure, abridged:
as §1
On to `COc1c(Cl)cc(F)c(-c2nn(C)c(OC(F)F)c2Cl)c1NC(=O)OCCCl` [Compound 1-68], for which the “Pre-emergence Herbicidal Activity AMARE (growth controlling degree)” value was 100%.

The test system of another experiment is prickly sida (Sida spinosa L.): SEDSP. The experiment can be described thus: Test Example 1 pre-emergence herbicidal activity, SIDSP. The experiment is classed as in vivo. Particulars: Rate 63 g a.i./ha, visually observed 20th to 23rd day after application. The procedure, abridged: as §1
On to `COc1c(Cl)cc(F)c(-c2nn(C)c(OC(F)F)c2Cl)c1NC(=O)OCCCl` [Compound 1-68], for which the “Pre-emergence Herbicidal Activity SIDSP (growth controlling degree)” value amounted to 100%.

A further experiment relates to prickly sida (Sida spinosa L.), SIDSP. The experiment can be described thus: Test Example 2 post-emergence (foliage treatment) herbicidal activity, SIDSP. The experiment is classed as in vivo. Particulars: 63 g a.i./ha. Summed up: as §2
With `COc1c(Cl)cc(F)c(-c2nn(C)c(OC(F)F)c2Cl)c1NC(=O)OCCCl` [Compound 1-68], the “growth controlling degree, SIDSP” value is reported as 100%.

In the next experiment the test system is corn (Zea mays L.): ZEAMX. The experiment can be described thus: Test Example 1 pre-emergence herbicidal activity, ZEAMX. The conditions noted are these: Rate 63 g a.i./ha, visually observed 20th to 23rd day after application. The experiment is classed as in vivo. The procedure, abridged:
as §1
On to `COc1c(Cl)cc(F)c(-c2nn(C)c(OC(F)F)c2Cl)c1NC(=O)OCCCl` [Compound 1-68], for which the “Pre-emergence Herbicidal Activity ZEAMX (growth controlling degree)” value stood at 10%.
